{"source": "patent US5744340A", "about": "“Expression of human inducible nitric oxide synthase” (Schering Corporation, priority 1995, dated 1998)", "key": {"[1]": {"biological_target": "T1, human iNOS (Homo sapiens, UniProt P35228)", "T1 construct": "A full length iNOS cDNA was assembled from the products of the four PCR reactions; made in house; host or cells: E. coli JS5", "T1 sequence (P35228 whole entry)": "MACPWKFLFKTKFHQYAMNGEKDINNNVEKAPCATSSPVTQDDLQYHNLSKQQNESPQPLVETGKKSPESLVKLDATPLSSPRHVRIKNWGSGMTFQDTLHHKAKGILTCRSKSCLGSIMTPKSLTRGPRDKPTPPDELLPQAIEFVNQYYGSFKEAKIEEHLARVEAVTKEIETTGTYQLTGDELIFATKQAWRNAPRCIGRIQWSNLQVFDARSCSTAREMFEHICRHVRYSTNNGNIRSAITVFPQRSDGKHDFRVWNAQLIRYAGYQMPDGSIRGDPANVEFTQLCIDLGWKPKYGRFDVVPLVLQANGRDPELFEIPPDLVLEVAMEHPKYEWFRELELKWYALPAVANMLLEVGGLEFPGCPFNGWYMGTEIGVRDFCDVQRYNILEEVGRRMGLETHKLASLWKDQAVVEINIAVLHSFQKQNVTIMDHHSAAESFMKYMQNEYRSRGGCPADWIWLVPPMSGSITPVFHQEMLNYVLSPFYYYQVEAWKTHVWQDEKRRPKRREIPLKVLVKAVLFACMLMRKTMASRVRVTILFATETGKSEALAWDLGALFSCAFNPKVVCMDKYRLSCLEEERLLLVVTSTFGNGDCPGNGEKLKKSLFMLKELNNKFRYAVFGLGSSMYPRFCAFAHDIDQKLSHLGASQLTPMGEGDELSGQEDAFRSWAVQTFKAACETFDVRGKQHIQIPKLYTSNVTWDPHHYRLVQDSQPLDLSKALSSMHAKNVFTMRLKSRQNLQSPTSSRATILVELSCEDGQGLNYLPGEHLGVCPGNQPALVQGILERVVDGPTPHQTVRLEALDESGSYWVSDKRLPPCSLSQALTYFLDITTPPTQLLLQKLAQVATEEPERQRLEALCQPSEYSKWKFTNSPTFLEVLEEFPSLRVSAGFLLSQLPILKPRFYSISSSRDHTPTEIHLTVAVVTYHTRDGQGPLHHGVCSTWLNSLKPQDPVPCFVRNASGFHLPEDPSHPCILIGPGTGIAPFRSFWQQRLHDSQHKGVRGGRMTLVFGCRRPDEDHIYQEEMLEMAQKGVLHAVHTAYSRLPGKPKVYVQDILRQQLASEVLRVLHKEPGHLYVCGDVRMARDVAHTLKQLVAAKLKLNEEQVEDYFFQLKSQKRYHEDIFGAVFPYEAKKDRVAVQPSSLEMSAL", "assay": "iNOS activity: conversion of radioactive arginine to citrulline", "assay_type": "biochemical", "conditions": "for dependence of activity on iNOS cofactors: crude cell extract; for NOS activity without calmodulin coexpression: expression in E. coli", "method": "iNOS activity was measured by the conversion of radioactive arginine to citrulline similar to that described by Bredt and Snyder (Proc. Natl. Acad. Sci. USA, 1989, 86:9030-9033). Reactions contained 20 mM HEPES pH 7.5, 1 mM DTT, 10 μM FAD, 10 μM FMN, 20 μM THB, 2 μM hemin, 1 mM NADPH, 2 mg/ml BSA, 50 μM cold arginine and 1 μM ^3 H-arginine (60 Ci/mmole; Amersham). […] The reaction mix was then passed through 100 μl of Dowex resin (AG50-X8) in a filtration plate to separate citrulline (unbound) from arginine (bound). The filtrate was counted with one volume of scintillation fluid in 1450 Microbeta Plus liquid scintillation counter (Wallac). Enough enzyme is used per assay point to convert 10-20% of the tritiated arginine to product. Activities of various cell extracts examined are reported in units/ml, units defined as pmoles of citrulline formed per minute. Samples of E coli cell lysate expressing iNOS activity were desalted on a G-25 column prior to assay to remove any cold arginine.\nNOS assays were performed as described above, except 1 μM undiluted labeled arginine was used. When calmodulin was used it was added at 10 μg/ml.\nThe iNOS activity in the crude cell extract was further characterized by a number of criteria.\nCells were broken and processed for activity, as described, except that THB was not added. The assay was then run with varying amounts of THB."}, "[2]": {"biological_target": "rat bNOS", "conditions": "Klatt et al., 1994, cited from earlier work"}, "[3]": {"biological_target": "T1, human iNOS", "assay": "retention of iNOS activity on overnight storage", "assay_type": "physicochemical", "procedure": "Breakage of cells and the ammonium sulfate fractionations were done in the presence of 10 μM FAD, 10 μM FMN, 2 μM THB, and 2 μM hemin. Leaving these cofactors out of the breaking buffer had no effect on the level of iNOS activity. […] Flavins were omitted after the 40% ammonium sulfate fractionation since they bind tightly to Q Sepharose. CHAPS detergent was included for the Q Sepharose column because iNOS fractionated poorly from the bulk of the protein in its absence. The yield of iNOS from about 20 liters of cells (32 g starting protein in the crude extract) was about 30-40 mg."}, "[4]": {"tested_on": "murine iNOS", "conditions": "1991, cited from earlier work"}, "[5]": {"tested_on": "rat bNOS", "conditions": "cited from earlier work"}}, "note": "pEC50, pIC50, pKd: −log10 of the molar value. “And” between values parts separate entries of the source, which are not always exact repeats. Equal entries are not always repeated. Where two headings read alike, the source gives them in different places."}
{"compound": "[Ca+2].[Cl-].[Cl-]", "note": "[CaCl2, reference compound]", "values": [{"measurement": "effect of addition on iNOS activity", "setting": "[1]; 1 mM CaCl2", "value": "unaffected"}]}
{"compound": "O=C(O)CN(CCOCCOCCN(CC(=O)O)CC(=O)O)CC(=O)O", "note": "[EGTA, reference compound]", "values": [{"measurement": "effect of addition on iNOS activity", "setting": "[1]; 1 mM EGTA", "value": "unaffected"}]}
{"compound": "Cc1cc2nc3c(=O)[nH]c(=O)nc-3n(C[C@H](O)[C@H](O)[C@H](O)COP(=O)(O)OP(=O)(O)OC[C@H]3O[C@@H](n4cnc5c(N)ncnc54)[C@H](O)[C@@H]3O)c2cc1C", "note": "[FAD, reference compound]", "values": [{"measurement": "dependence of activity on iNOS cofactors", "setting": "[1]", "value": "no dependence"}]}
{"compound": "Cc1cc2nc3c(=O)[nH]c(=O)nc-3n(C[C@H](O)[C@H](O)[C@H](O)COP(=O)(O)O)c2cc1C", "note": "[FMN, reference compound]", "values": [{"measurement": "dependence of activity on iNOS cofactors", "setting": "[1]", "value": "no dependence"}]}
{"compound": "C[C@H](O)[C@H](O)[C@H]1CNc2nc(N)[nH]c(=O)c2N1", "note": "[THB, tetrahydrobiopterin, reference compound]", "values": [{"measurement": "pKd", "setting": "[2]; read-out: Kd for THB binding to rat bNOS", "value": "~7.40"}, {"measurement": "pKd", "setting": "[2]; in the absence of 100 μM arginine, read-out: binding constant of THB for bNOS", "value": 6.60}, {"measurement": "pKd", "setting": "[2]; in the presence of 100 μM arginine, read-out: binding constant of THB for bNOS", "value": 7.43}, {"measurement": "dependence of enzyme activity on added THB", "setting": "[1]; E. coli expressed iNOS", "value": "completely dependent"}, {"measurement": "pEC50", "setting": "[1]; FIG. 4, cells broken without THB, varying THB in assay, read-out: half-maximal activity (THB titration)", "value": "~6.92 and 6.92"}, {"measurement": "effect of THB on NOS activity", "setting": "[1]; cells broken in the absence of THB, THB added", "value": "restores NOS activity"}]}
{"compound": "N=C(N)NN", "note": "[aminoguanidine, reference compound]", "values": [{"measurement": "IC50's on E. coli-derived compared with 293 cell-derived iNOS", "setting": "[1]; FIG. 5, 1 μM labeled arginine, inhibitor 0.01 to 10,000 μM", "value": "within two-fold of each other on both sources of iNOS"}]}
{"compound": "N=C(N)NCCC[C@H](N)C(=O)O", "note": "[arginine, L-arginine, reference compound]", "values": [{"measurement": "Km for arginine compared with mammalian derived iNOS", "setting": "[1]; E. coli expressed iNOS", "value": "same Km"}]}
{"compound": "c1c[nH]cn1", "note": "[imidazole, reference compound]", "values": [{"measurement": "pIC50", "setting": "[1]", "value": 3.92}]}
{"compound": "calmodulin", "values": [{"measurement": "effect of addition of calmodulin on NOS activity", "setting": "[1]; FIG. 2, coexpression extracts, calmodulin 10 μg/ml, 1 μM undiluted labeled arginine", "value": "no effect"}, {"measurement": "effect of addition on iNOS activity", "setting": "[1]; calcium +10 mg/ml calmodulin", "value": "unaffected"}, {"measurement": "effect of calmodulin in the NOS assay", "setting": "[1]; iNOS expressed in E. coli without coexpression of calmodulin", "value": "no effect"}]}
{"compound": "hemin [reference compound]", "values": [{"measurement": "dependence of activity on iNOS cofactors", "setting": "[1]", "value": "no dependence"}]}
{"compound": "human iNOS: human inducible nitric oxide synthase expressed in E. coli, coexpressed with human calmodulin", "values": [{"measurement": "Specific Activity", "setting": "[1]; 40% ammonium sulfate ppt", "value": "19,600 units/mg"}, {"measurement": "specific activity compared with murine iNOS", "setting": "[1]; E. coli expressed iNOS", "value": "approximately the same specific activity"}, {"measurement": "level of activity with coexpression relative to without coexpression", "setting": "[1]; FIG. 2, average of three assays", "value": "> 100", "unit": "fold"}, {"measurement": "Specific Activity", "setting": "[1]; Q Sepharose pool", "value": "149,000 units/mg"}, {"measurement": "Specific Activity", "setting": "[1]; S300 pool", "value": "317,000 units/mg"}, {"measurement": "Specific Activity", "setting": "[1]; cell lysate", "value": "2,420 units/mg"}, {"measurement": "activity with coexpression of calmodulin", "setting": "[1]; crude extract", "value": "3000-5000 units/mg"}, {"measurement": "NOS activity without calmodulin coexpression", "setting": "[1]", "value": "barely detectable above background"}, {"measurement": "NOS activity without calmodulin coexpression", "setting": "[1]; listed as iNOS", "value": "barely detectable above the E. coli negative control"}, {"measurement": "specific activity of iNOS in the crude cell supernatant", "setting": "[1]; iNOS amount estimated from SDS gel against BSA control", "value": "500-1000 nmoles citrulline/min/mg of iNOS"}, {"measurement": "specific activity of the most pure material", "setting": "[1]; leading edge of the S300 column, >95% pure", "value": "450,000 units/mg"}, {"measurement": "activity after overnight storage", "setting": "[3]; absence of cofactors (FAD, FMN, THB, hemin)", "value": "half of the activity was lost"}, {"measurement": "activity after overnight storage", "setting": "[3]; presence of cofactors (10 μM FAD, 10 μM FMN, 2 μM THB, 2 μM hemin)", "value": "complete activity was retained"}]}
{"compound": "murine iNOS: purified murine inducible nitric oxide synthase (Stuehr et al., 1991)", "values": [{"measurement": "specific activity of purified murine iNOS", "setting": "[4]; Stuehr et al.", "value": 1000, "unit": "nmol/min/mg"}, {"measurement": "specific activity of murine iNOS", "setting": "[4]; pure murine iNOS, b61: Stuehr et al.", "value": "1×10^6 units/mg and 1,000,000 units/mg"}]}
{"compound": "rat bNOS: rat brain or neuronal nitric oxide synthase", "values": [{"measurement": "specific activity of rat bNOS", "setting": "[5]", "value": "270,000 units/mg"}]}
